In data set [1] the target is T1, wild-type Aedes aegypti EcR (AaEcR-DEF) (Aedes aegypti, UniProt P49880).
T1 sequence (P49880 405-776 limits assumed): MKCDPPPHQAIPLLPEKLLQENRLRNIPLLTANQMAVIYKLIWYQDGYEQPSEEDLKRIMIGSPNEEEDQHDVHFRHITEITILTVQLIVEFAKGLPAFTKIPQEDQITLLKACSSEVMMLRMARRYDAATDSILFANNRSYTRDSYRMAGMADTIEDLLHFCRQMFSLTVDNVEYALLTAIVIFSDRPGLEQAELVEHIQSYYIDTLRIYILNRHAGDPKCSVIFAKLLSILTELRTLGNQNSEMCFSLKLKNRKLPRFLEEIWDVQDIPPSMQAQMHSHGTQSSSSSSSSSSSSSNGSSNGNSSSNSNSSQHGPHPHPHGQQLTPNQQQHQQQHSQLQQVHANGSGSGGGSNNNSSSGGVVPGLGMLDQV
As to the kind of experiment: Two-hybrid gene switch assay, AaEcR-DEF in NIH3T3 cells. To be noted: AaEcR.

The target in data set [2] is T2, wild-type Drosophila melanogaster EcR (DmEcR-DEF) (Drosophila melanogaster, UniProt P34021).
T2 sequence (P34021 342-878 limits assumed): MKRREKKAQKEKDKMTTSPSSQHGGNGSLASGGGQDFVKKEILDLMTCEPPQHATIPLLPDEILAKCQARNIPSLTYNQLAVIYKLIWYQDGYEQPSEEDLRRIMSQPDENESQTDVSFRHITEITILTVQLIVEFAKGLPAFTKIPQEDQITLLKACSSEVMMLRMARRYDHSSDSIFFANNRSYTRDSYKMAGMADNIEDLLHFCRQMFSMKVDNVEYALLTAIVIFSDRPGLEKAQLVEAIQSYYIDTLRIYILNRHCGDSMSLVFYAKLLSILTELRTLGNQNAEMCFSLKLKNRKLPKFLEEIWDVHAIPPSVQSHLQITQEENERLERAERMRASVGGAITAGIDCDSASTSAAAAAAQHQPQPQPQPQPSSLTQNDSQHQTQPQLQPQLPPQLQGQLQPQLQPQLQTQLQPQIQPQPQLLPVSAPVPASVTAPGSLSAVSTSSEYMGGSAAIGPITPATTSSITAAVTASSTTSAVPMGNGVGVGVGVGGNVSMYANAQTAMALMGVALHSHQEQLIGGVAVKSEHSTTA
As to the kind of experiment: Two-hybrid gene switch assay, DmEcR-DEF in NIH3T3 cells. To be noted: DmEcR.

In data set [3] the target is T3, wild-type Choristoneura fumiferana EcR (CfEcR-DEF) (Choristoneura fumiferana, UniProt O77255).
T3 sequence (O77255 219-541): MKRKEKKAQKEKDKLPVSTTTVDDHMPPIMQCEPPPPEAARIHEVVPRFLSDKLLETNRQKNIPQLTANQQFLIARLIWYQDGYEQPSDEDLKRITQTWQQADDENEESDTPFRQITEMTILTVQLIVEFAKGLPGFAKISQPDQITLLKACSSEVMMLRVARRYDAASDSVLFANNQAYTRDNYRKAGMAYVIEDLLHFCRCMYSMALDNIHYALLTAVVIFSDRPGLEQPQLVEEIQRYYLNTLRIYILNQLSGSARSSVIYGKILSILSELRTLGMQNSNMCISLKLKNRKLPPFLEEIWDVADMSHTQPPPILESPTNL
T3 sequence (P28702 299-449 partner): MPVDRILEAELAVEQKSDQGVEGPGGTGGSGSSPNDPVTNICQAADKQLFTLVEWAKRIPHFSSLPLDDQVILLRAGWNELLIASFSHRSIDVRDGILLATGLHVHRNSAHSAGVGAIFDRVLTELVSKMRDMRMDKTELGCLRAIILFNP
Kind of data set: Two-hybrid gene switch assay, wild-type CfEcR-DEF (GAL4-EcR / VP16-RXR-USP chimera, luciferase) in NIH3T3 cells. To be noted: for RMFI (relative maximum fold induction, relative to diacylhydrazine 30): wt-CfEcR gene switch, NIH3T3, Example One.

The target in data set [4] is T4, Manduca sexta EcR (MsEcR) (Manduca sexta, UniProt P49883).
T4 sequence (P49883 293-531 limits assumed): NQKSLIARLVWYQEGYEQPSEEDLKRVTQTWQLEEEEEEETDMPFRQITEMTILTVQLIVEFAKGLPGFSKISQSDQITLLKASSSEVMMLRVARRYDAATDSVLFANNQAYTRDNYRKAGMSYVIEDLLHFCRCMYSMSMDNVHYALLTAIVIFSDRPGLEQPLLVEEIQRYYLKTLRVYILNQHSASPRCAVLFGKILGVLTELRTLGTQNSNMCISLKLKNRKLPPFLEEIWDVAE
As to the kind of experiment: Two-hybrid gene switch assay, MsEcR-CDEF in NIH3T3 cells. To be noted: MsEcR; alternative 3T3 fibroblast cell stock.

Data set [5] relates to D. melanogaster BII cell line (expresses the ecdysteroid receptor complex EcR-USP). As to the kind of experiment: Drosophila melanogaster BII cell line bioassay (turbidometric; agonist and antagonist versions).
The subject of data set [6] is EcRs (lepidopteran and non-lepidopteran). Kind of data set: Two-hybrid gene switch assays, statements across the set of ten EcRs in NIH3T3 cells. The note with it: FIGS. 13 and 14.
Setting [7] is: relative to 3,5-dimethyl-benzoic acid N-tert-butyl-N′-(2-ethyl-3-methoxy-benzoyl)-hydrazide.
Setting [8] is: read-out: EC50 (M), BII bioassay results, D. melanogaster BII cell line, turbidometric.
[9] abbreviates: Drosophila melanogaster, read-out: EC50 (M), BII bioassay results.

Where two headings read alike, the source gives them in different places.

The term EC50 denotes the concentration at which the effect is half-maximal. For the compound `CO[C@H](CCC(C)C)[C@](C)(O)[C@H]1CC[C@@]2(O)C3=CC(=O)[C@@H]4C[C@@H](O)[C@@H](O)C[C@]4(C)[C@H]3CC[C@]12C` [PoA-22-methyl ether], the “rel max FI (diacylhydrazine), AA” value in data set [1] (setting [7]) is given as around 0.8. The EC50 is below 0.01 µM in data set [1] (EC50 (μM), AA, NIH3T3 cells, luciferase, 48 h, ligand 0.01-33 μM); around 0.03 µM in data set [2] (EC50 (μM), DM, NIH3T3 cells, luciferase, 48 h, ligand 0.01-33 μM); around 2 µM in data set [3]. Moreover, in data set [2] (setting [7]), the “rel max FI (diacylhydrazine), DM” value is listed as around 0.9. The Emax in data set [3] (NIH3T3, 48 h, read-out: rel max FI (diacylhydrazine), CF) was in the range of 30 to 65%.

Consider `CO[C@@H]1C[C@H]2C(=O)C=C3[C@H](CC[C@]4(C)[C@@H]([C@@](C)(O)[C@H](O)CCC(C)(C)O)CC[C@@]34O)[C@@]2(C)C[C@@H]1O` [compound 2, 20-hydroxyecdysone, 3-methyl ether], for which the “potency of ether relative to parent” value in data set [4] is “lose potency”. In addition, the EC50 in data set [5] (setting [8]) was determined as 6e-07 M.

Take `CO[C@H](CCC(C)(C)O)[C@](C)(O)C1CC[C@@]2(O)C3=CC(=O)C4C[C@@H](O)[C@@H](O)CC4(C)C3CCC12C` (some centres unmarked) [compound 4, 20-hydroxyecdysone-22-methyl ether]: the “potency of ether relative to parent” value in data set [4] is listed as “lose potency”. In addition, the “BII potency relative to 20E” value in data set [5] was “maintains 20E potency”. The EC50 in data set [5] (setting [9]) is 6.3e-09 M; in data set [5] (Drosophila melanogaster, read-out: −log EC50 (converted)) it was 6.31e-09 M.

Consider `CCO[C@H](CCC(C)(C)O)[C@](C)(O)C1CC[C@@]2(O)C3=CC(=O)C4C[C@@H](O)[C@@H](O)CC4(C)C3CCC12C` (some centres unmarked) [compound 5, 20-hydroxyecdysone-22-ethyl ether], for which the “BII potency relative to 20E” value in data set [5] is reported as “slightly less potent than methyl”. Besides, the results for the 50% effective concentration (EC50) in data set [5] (setting [9]) and in data set [3] were 2.2e-08 M and 4.85 µM, respectively. In addition, in data set [3] (NIH3T3, 48 h, read-out: reporter gene induction, % of maximum fold induction), the activation at 5 µM came to 77%. Also, the “RMFI (relative maximum fold induction, relative to diacylhydrazine 30)” value in data set [3] is recorded as 0.77.

For the compound `CC(C)(O)CC[C@@H](OCc1ccccc1)[C@](C)(O)C1CC[C@@]2(O)C3=CC(=O)C4C[C@@H](O)[C@@H](O)CC4(C)C3CCC12C` (some centres unmarked) [compound 9, 20-hydroxyecdysone, 22-benzyl ether], in data set [5], the “BII potency relative to 20E” value is on record as “does not decrease 20E potency very much”. Also, the EC50 in data set [5] (setting [9]) came to 2.2e-08 M.

On to `COC(C)(C)CC[C@@H](O)[C@](C)(O)[C@H]1CC[C@@]2(O)C3=CC(=O)[C@@H]4C[C@@H](O)[C@@H](O)C[C@]4(C)[C@H]3CC[C@]12C` [compound 10, 20-hydroxyecdysone-25-methyl ether], for which the EC50 in data set [5] (setting [8]) turned out to be 6e-08 M.

With `CO[C@H]1C[C@@]2(C)[C@@H](C[C@H]1O)C(=O)C=C1[C@@H]2CC[C@]2(C)[C@@H]([C@@](C)(O)[C@@H](CCC(C)(C)O)OC)CC[C@@]12O` [compound 11, 20-hydroxyecdysone, 2,22-dimethyl ether], the EC50 in data set [5] (setting [8]) was found to be 9.3e-07 M.

As to `COC1C[C@H]2C(=O)C=C3[C@H](CC[C@]4(C)[C@@H]([C@@](C)(O)C(CCC(C)(C)O)OC)CC[C@@]34O)[C@@]2(C)CC1O` (some centres unmarked) [compound 12, 20-hydroxyecdysone, 3,22-dimethyl ether], the “potency of ether relative to parent” value in data set [4] is listed as “lose potency”. In addition, the EC50 in data set [5] (setting [8]) worked out at 2.2e-07 M.

As for `CO[C@H](CCC(C)(C)O)[C@](C)(O)C1CC[C@@]2(OC)C3=CC(=O)C4C[C@@H](O)[C@@H](O)CC4(C)C3CCC12C` (some centres unmarked) [compound 13, 20-hydroxyecdysone, 14,22-dimethyl ether], the half-maximal effective concentration (EC50) in data set [5] (setting [9]) was found to be 2.5e-06 M.

As for `CO[C@H](CCC(C)(C)OC)[C@](C)(O)[C@H]1CC[C@@]2(O)C3=CC(=O)[C@@H]4C[C@@H](O)[C@@H](O)C[C@]4(C)[C@H]3CC[C@]12C` [compound 14, 20-hydroxyecdysone, 22,25-dimethyl ether], the EC50 in data set [5] (setting [8]) was 1.2e-07 M.

Regarding `CO[C@H]1CC2(C)C(C[C@H]1OC)C(=O)C=C1C2CCC2(C)C([C@@](C)(O)[C@@H](CCC(C)(C)O)OC)CC[C@@]12OC` (some centres unmarked) [compound 15, 20-hydroxyecdysone, 2,3,14,22-tetramethyl ether], the concentration giving a half-maximal response (EC50) in data set [5] (setting [9]) was 9e-05 M.

As to `CO[C@H]1C[C@@]2(C)[C@@H](C[C@H]1O)C(=O)C=C1[C@@H]2CC[C@]2(C)[C@@H]([C@@](C)(O)[C@H](O)CCC(C)C)CC[C@@]12O` [compound 16, ponasterone A, 2-methyl ether], in data set [5] (setting [8]), the 50% effective concentration (EC50) was found to be 4.3e-08 M.

Turning to `CO[C@@]12CC[C@H]([C@@](C)(O)[C@H](O)CCC(C)C)[C@@]1(C)CC[C@H]1C2=CC(=O)[C@@H]2C[C@@H](O)[C@@H](O)C[C@@]21C` [compound 17, ponasterone A, 14-methyl ether], the concentration for a half-maximal effect (EC50) in data set [5] (setting [8]) turned out to be 6e-08 M.

Turning to `CO[C@H]1C[C@@]2(C)[C@@H](C[C@H]1O)C(=O)C=C1[C@@H]2CC[C@]2(C)[C@@H]([C@@](C)(O)[C@@H](CCC(C)C)OC)CC[C@@]12O` [compound 19, ponasterone A, 2,22-dimethyl ether], the half-maximal effective concentration (EC50) in data set [5] (setting [8]) worked out at 3e-08 M.

As to `COC(CCC(C)C)[C@](C)(O)[C@H]1CC[C@@]2(O)C3=CC(=O)[C@@H]4C[C@@H](OC)[C@@H](O)C[C@]4(C)[C@H]3CC[C@]12C` (some centres unmarked) [compound 20, ponasterone A, 3,22-dimethyl ether], the concentration for a half-maximal effect (EC50) in data set [5] (setting [8]) was found to be 1.2e-08 M.

On to `CO[C@H](CCC(C)C)[C@](C)(O)[C@H]1CC[C@@]2(OC)C3=CC(=O)[C@@H]4C[C@@H](O)[C@@H](O)C[C@]4(C)[C@H]3CC[C@]12C` [compound 21, ponasterone A, 14,22-dimethyl ether], for which, in data set [5] (setting [8]), the concentration for a half-maximal effect (EC50) was 1.7e-07 M.

Regarding `CO[C@H](CCC(C)C)[C@](C)(O)C1CC[C@@]2(O)C3=CC(=O)C4C[C@@H](O)[C@@H](O)CC4(C)C3=CCC12C` (some centres unmarked) [compound 22, dacryhainansterone, 22-methyl ether], in data set [5] (setting [9]), the EC50 turned out to be 1e-07 M. Also, the “RMFI (relative maximum fold induction, relative to diacylhydrazine 30)” value in data set [3] was around 0.3.

Take `CCC1(O[C@H](CCC(C)(C)O)[C@](C)(O)C2CC[C@@]3(O)C4=CC(=O)C5C[C@@H](O)[C@@H](O)CC5(C)C4CCC23C)CO1` (stereo partly drawn) [compound 23, 20-hydroxyecdysone, 22-(28R,S)-2′-ethyloxiranyl ether]: the EC50 in data set [5] (setting [9]) was found to be 2.2e-05 M.

`C=C(C)CC[C@@H](O)[C@](C)(O)[C@H]1CC[C@@]2(O)C3=CC(=O)[C@@H]4C[C@@H](O)[C@@H](O)C[C@]4(C)[C@H]3CC[C@]12C` [isostachysterone C, 25,26-didehydroponasterone A]: the “activity across the tested set of EcRs” value in data set [6] was “active”.

Source of the values: patent publication US8536354B2, “Steroidal ligands and their use in gene switch modulation” (Intrexon Corporation, priority 2008, dated 2013).
